# Reference: patent US12109294B2, “Oily moisturizer and topical skin composition containing same” (The Nisshin OilliO Group, Ltd., priority 2018, dated 2024)
# Tested on: skin stratum corneum (forearm)
# Assay: Evaluation test of moisture retention effect upon single application of esterified product (stratum corneum moisture content, SKICON-200)
# Assay type: in vivo, human
# Description: The moisture content of the stratum corneum can be investigated using the electrical conductivity (μS) of the stratum corneum. The electrical conductivity (μS) of the stratum corneum is dependent on the water content of the stratum corneum, and the greater the moisture content of the stratum corneum, the larger the electrical conductivity (μS) of the stratum corneum becomes. The electrical conductivity (μS) of the stratum corneum can be measured by a constant-pressure sensor probe contact high-frequency conductance exchange method. Specifically, the electrical conductivity (μS) of the stratum corneum can be measured by using a stratum corneum moisture content measuring device based on the above measurement method, such as a stratum comeum moisture content measuring device “SKICON-200” manufactured by IBS Co., Ltd.
# After maintaining the state with the oily moisturizer applied to the skin for a certain period, for example 30 to 90 minutes, the oily moisturizer is removed from the skin surface. […] Using the obtained values for the electrical conductivity (uS) of the stratum corneum before and after application of the oily moisturizer, the moisture retention effect value is calculated and the moisture retention effect is evaluated. […]
# Subsequently, 40 μL of the test sample being evaluated was applied uniformly to the square measurement region of the forearm. […]
smiles,measurement,setting,value
OCC(O)CO [glycerol],Increase in the electrical conductivity that corresponds with the moisture retention effect value,"60 minutes after application, still applied to the skin surface, prior to removal using water",477 μS
same,Moisture retention effect value,"single application, removal with cotton swab immersed in water rather than hexane",8 μS
